According to article PMC6522510 (Nature Communications, 2019):
Structures can show the parent of a compound that is named as a salt.

Experiments:
Test in all cases: cells
Design in all cases: species or system AML cell lines (8); Secondary HTS, 10-point dose-response in triplicate, Cell Titer Glo viability, four-parameter fit EC50
[1] = system: MOLM-13; settings: Homo sapiens, MOLM-13, 72 h, read-out: MOLM-13
[2] = system: MV4-11; settings: Homo sapiens, MV4-11, 72 h, read-out: MV4-11
[3] = system: CHRF288-11; settings: 72 h, read-out: CHRF288-11
[4] = system: CMK; settings: Homo sapiens, CMK, 72 h, read-out: CMK
[5] = system: CMS; settings: 72 h, read-out: CMS
[6] = system: M07e; settings: M-07e, 72 h, read-out: M07e
[7] = system: ML-2; settings: Homo sapiens, ML-2, 72 h, read-out: ML-2
[8] = system: U937; settings: Homo sapiens, U-937, 72 h, read-out: U937

EC50 [1]	EC50 [2]	EC50 [8]	SMILES	EC50 [3]	EC50 [4]	EC50 [5]	EC50 [6]	EC50 [7]
> 10 µM	> 10 µM	> 10 µM	Cc1cccc(-c2nn3c(c2-c2ccnc4ccc(C(N)=O)cc24)CCC3)n1 [LY2157299]	> 10 µM	> 10 µM	> 10 µM	> 10 µM	> 10 µM
> 10 µM	> 10 µM	> 10 µM	S=c1[nH]cnc2nc[nH]c12 [MERCAPTOPURINE]	> 10 µM	> 10 µM	> 10 µM	> 10 µM	> 10 µM
> 10 µM	> 10 µM	> 10 µM	Clc1ccc(C(c2ccccc2Cl)C(Cl)Cl)cc1 (centres unmarked) [MITOTANE]	> 10 µM	> 10 µM	> 10 µM	> 10 µM	> 10 µM
> 10 µM	> 10 µM	> 10 µM	O=C(O)CC[C@H]1CC[C@@](c2cc(F)ccc2F)(S(=O)(=O)c2ccc(Cl)cc2)CC1 [MK-0752]	> 10 µM	> 10 µM	> 10 µM	> 10 µM	> 10 µM
> 10 µM	> 10 µM	> 10 µM	COc1ccc2c(c1OC)C(=O)O[C@@H]2[C@H]1c2c(cc3c(c2OC)OCO3)CCN1C [NOSCAPINE HYDROCHLORIDE]	> 10 µM	> 10 µM	> 10 µM	> 10 µM	> 10 µM
> 10 µM	> 10 µM	> 10 µM	CO[C@@H]1[C@@H](OC(N)=O)[C@@H](O)[C@H](Oc2ccc3c(O)c(NC(=O)c4ccc(O)c(CC=C(C)C)c4)c(=O)oc3c2C)OC1(C)C [NOVOBIOCIN SODIUM]	> 10 µM	> 10 µM	> 10 µM	> 10 µM	> 10 µM
> 10 µM	> 10 µM	> 10 µM	CCN1CCN(c2ccc(Nc3cc(N(C)C(=O)Nc4c(Cl)c(OC)cc(OC)c4Cl)ncn3)cc2)CC1 [NVP-BGJ398]	> 10 µM	> 10 µM	> 10 µM	> 10 µM	> 10 µM
> 10 µM	> 10 µM	> 10 µM	Cc1[nH]c(/C=C2\C(=O)Nc3ccccc32)c(C)c1CCC(=O)O [ORANTINIB]	> 10 µM	> 10 µM	> 10 µM	> 10 µM	> 10 µM
> 10 µM	> 10 µM	> 10 µM	Cc1ccc(Nc2nccc(N(C)c3ccc4c(C)n(C)nc4c3)n2)cc1S(N)(=O)=O [PAZOPANIB]	> 10 µM	> 10 µM	> 10 µM	> 10 µM	> 10 µM
> 10 µM	> 10 µM	> 10 µM	OC[C@H]1O[C@@H](n2cnc3c2NC=NC[C@H]3O)C[C@@H]1O [PENTOSTATIN]	> 10 µM	> 10 µM	> 10 µM	> 10 µM	> 10 µM
> 10 µM	> 10 µM	> 10 µM	CCCCCCCCCCCCCCCCCCOP(=O)([O-])OC1CC[N+](C)(C)CC1 [PERIFOSINE]	> 10 µM	> 10 µM	> 10 µM	> 10 µM	> 10 µM
> 10 µM	> 10 µM	> 10 µM	CCCC(=O)OCOC(=O)C(C)(C)C [PIVANEX]	> 10 µM	> 10 µM	> 10 µM	> 10 µM	> 10 µM
> 10 µM	> 10 µM	> 10 µM	CC(C)(C(=O)NCC(F)(F)C(F)(F)F)C(=O)N[C@@H]1C(=O)Nc2ccccc2-c2ccccc21 [RO-4929097]	> 10 µM	> 10 µM	> 10 µM	> 10 µM	> 10 µM
